From patent US5656613A, “Treatment of hyperandrogenic conditions” (Merck & Co., Inc., priority 1995, dated 1997)
Entries after “also recorded” stand apart in the source; their conditions may differ. Where two headings read alike, the source gives them in different places.

Columns and labels:
[1] = target: T1, human prostate (type 2) isozyme of 5α-reductase (Homo sapiens, UniProt P31213); assay: Slow-binding / fixed-time inhibition of human prostate (type 2) 5α-reductase by finasteride; format: biochemical; parameters: host or cells: native human prostate tissue or recombinant from a baculovirus expression system; considered interchangeable
T1 sequence (P31213 1-254): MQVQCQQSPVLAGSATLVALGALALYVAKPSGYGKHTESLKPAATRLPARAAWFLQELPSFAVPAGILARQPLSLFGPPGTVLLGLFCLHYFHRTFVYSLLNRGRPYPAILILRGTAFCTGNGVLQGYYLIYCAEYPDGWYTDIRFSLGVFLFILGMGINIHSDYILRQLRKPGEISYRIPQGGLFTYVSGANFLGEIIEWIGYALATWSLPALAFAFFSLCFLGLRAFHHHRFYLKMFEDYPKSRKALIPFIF
Protocol: (§1) When tissue extracts were the source of enzyme, the quenched reactions were clarified by centrifugation at 10,000×g before analysis.
Where indicated, measurements were also conducted under conditions that have more traditionally been employed for this enzyme at pH 5.50 and 37° C.
The enzyme was either used directly as a crude cell homogenate, or isolated as microsomal suspensions by differential centrifugation. In general, the tissue or cell pellet was combined with an equal volume of buffer and dispersed using a high shear force homogenizer (POLYTRON, high speed) for several minutes in an ice bath below 10° C. […] Saturating levels of cofactor were usually included to improve enzyme stability.
(§2) The human isozymes were employed exclusively in this research. The native isozymes were from scalp (type 1 ) or prostate (type 2) tissues, and the recombinant forms were produced by a baculovirus expression system. Except where specified, all data refer to the prostate (type 2) isozyme, the primary target of finasteride. All of the experiments described in this application were also conducted with the recombinant type 1 isozyme, either in parallel or for confirmation.
(§3) The data for slow-binding inhibition were analyzed as reviewed by Morrison et al., Adv. Enzymol. 61:201-301 (1988). The kinetic model is shown in the Description of the Invention. The time courses were fit to an integrated first-order rate equation (Equation 1), where A is product concentration, .nu.o is the initial velocity, .nu.s is the infinite-time velocity, and kobs is the first-order rate constant for progression of the enzyme between the two equilibrium states.
vo =kcat (E)(S)/(Km (1+([…]))+S) Equation 2
The rate constant for conversion of the weak complex to the high-affinity one, k2, was obtained by nonlinear regression to Equation 3, which also is a function of Ki.
[(I/Ki)/(1+(S/Km)+(I/Ki)]Equation 3

[2] = target: T1, human prostate (type 2) isozyme of 5α-reductase; parameters: host or cells: native human prostate tissue or recombinant from a baculovirus expression system; considered interchangeable; details: cited from earlier work
[3] = target: T2, human skin (type 1) isozyme of 5α-reductase (Homo sapiens, UniProt P18405); details: cited from earlier work
T2 construct: made in house
T2 sequence (P18405 1-259): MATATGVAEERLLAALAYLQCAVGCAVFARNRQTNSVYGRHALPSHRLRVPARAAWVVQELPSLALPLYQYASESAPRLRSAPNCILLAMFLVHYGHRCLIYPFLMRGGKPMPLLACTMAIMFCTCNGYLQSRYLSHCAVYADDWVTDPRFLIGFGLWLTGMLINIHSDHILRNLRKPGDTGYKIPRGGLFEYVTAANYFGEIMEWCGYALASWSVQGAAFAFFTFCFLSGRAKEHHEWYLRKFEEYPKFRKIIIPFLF

[4] = target: T1, human prostate (type 2) isozyme of 5α-reductase; assay: Release of radiolabel on denaturation of enzyme-[^3 H]finasteride complex; format: binding; parameters: host or cells: native human prostate tissue or recombinant from a baculovirus expression system; considered interchangeable
Protocol: (§4) The concentrations of bound and free radioactivity were determined by ultrafiltration on 10,000 Da cutoff membranes (AMICON, Centricon-10), which were centrifuged several hours at 4° C.
(§5) Nonspecific binding was assessed by reversing the order of addition, first blocking the […] with excess unlabeled inhibitor before addition of […].

[5] = target: T1, human prostate (type 2) isozyme of 5α-reductase; assay: Dissociation of enzyme-[^3 H]finasteride complex (release of radioactivity), type 2; format: binding; parameters: host or cells: native human prostate tissue or recombinant from a baculovirus expression system; considered interchangeable; details: 21.9 nM enzyme, 9.33 nM [^3 H]finasteride, 466 μM NADPH, pH 7.2, 37° C.
Protocol: as §4, §5

[6] = target: T2, human skin (type 1) isozyme of 5α-reductase; assay: Inhibition of human skin (type 1) 5α-reductase by finasteride; format: biochemical; details: type 1, from ratio of rate constants; read-out: steady-state Ki *
Source text: as §1, §2, §3

[7] = target: T1, human prostate (type 2) isozyme of 5α-reductase
Protocol: The rate constant for dissociation of the enzyme-inhibitor complex was determined from the rate of release of radioactivity from enzyme-[^3 H]finasteride complex in the presence of 100-fold excess unlabeled finasteride. The enzyme-[^3 H]finasteride complex was formed in a solution containing excess enzyme: 21.9 nM enzyme (6 mg protein, ~0.04% pure, taken from the relatively homogeneous 100,000×g supernatant fraction). […] After 2 hours, exchange was initiated by making the solution 933 nM in unlabeled finasteride (including 1% ethanol). The solution was divided into aliquots (100 μL) which were incubated at 37° C.; each day a sample was removed and frozen away at -80° C. for future determination of bound and free inhibitor.
To obtain sufficient transformed inhibitor for mass spectral analysis, a preparation of baculovirus-expressed enzyme was employed that consisted of all protein sedimenting between 1,000 to 100,000×g. […] The solution was then dialyzed overnight at 4° C. in 14,000 Da cutoff dialysis tubing (SPECTRAPOR 2) against 2 changes of 4L water containing 1 mM MOPS and 1 mM EDTA at pH 7.20.

dihydrotestosterone = details: clinical trials, cited from earlier work

## CC(C)(C)NC(=O)[C@H]1CC[C@H]2[C@@H]3CC[C@H]4NC(=O)C=C[C@]4(C)[C@H]3CC[C@]12C [Compound 1, 17β-(N-tert-butylcarbamoyl)-3-oxo-4-aza-5α-androst-1-ene-3-one]
[1]; 37° C., assuming Ki * <100 pM
  halflife for dissociation (or turnover) of enzyme-inhibitor complex, predicted from association rate: > 6 h
[1]; assuming minimum Ki
  halflife of conversion to high-affinity complex: < 30 s
[1]; lowest practical concentrations of finasteride (2 nM)
  suppression of activity at infinite time: nearly complete suppression of the activity
[1]; type 2
  Ki for the preliminary complex (theoretical line, minimum value): 100 nM
[1]; type 2 enzyme, read-out: overall equilibrium constant Ki *
  Ki: < 0.1 nM
[2]; Faller et al., native human prostate enzyme, pH 7.0, read-out: dissociation constant Ki
  Ki: > 150 nM
[2]; fixed-time assays, previously shown
  mode of inhibition: competitive with testosterone
[2]; human prostate enzyme, as first perceived in fixed-time assays, read-out: Ki (simple, rapidly-reversible inhibitor)
  Ki: 26 nM
[2]; prostate
  inhibition of type 2 isozyme: potently inhibited by finasteride
[2]; read-out: Ki of essentially irreversible enzyme-inhibitor complex, Faller et al., human prostate isozyme
  Ki: < 1 nM
[3]; skin (type 1) isozyme, Tian et al.
  second-order rate constant for formation of complex: 4000 M⁻¹ s⁻¹
[3]; skin (type 1) isozyme, Tian et al., read-out: Ki of preliminary weak complex
  Ki: 360 nM
[3]; skin, listed as finasteride
  inhibition of type 1 isozyme: not a significant inhibitor of human skin (type 1 ) isozyme at doses employed in the treatment of BPH; also recorded: relatively insensitive to finasteride
[4]; 7M guanidine hydrochloride
  radiolabel released on denaturation: > 99%
[4]; 45% aqueous ethanol
  radiolabel released on denaturation: > 77%
[4]; boiling water bath, 2 minutes
  radiolabel released on denaturation: > 96%
[5]
  inhibition on complex formation: 36%
[6]
  Ki: < 0.2 nM
[7]; 1.39 μM enzyme, 1.14 μM finasteride, 573 μM NADPH, pH 7.20, 45 min
  inhibition on complex formation: 73%
[7]; off-rate experiment, one month
  [^3 H]-1,2-dihydrofinasteride as share of free tritium released from the [^3 H]finasteride-enzyme complex: > 95%
  untransformed [^3 H]finasteride released: no untransformed [^3 H]finasteride was detected
dihydrotestosterone; Stoner, Gormley et al.
  time for dihydrotestosterone to return to basal levels after withdrawal: two
dihydrotestosterone; circulating concentrations comparable to Ki
  reduction of dihydrotestosterone levels: reduced levels of dihydrotestosterone to values approaching those found in individuals genetically deficient in the prostate isozyme
